Measurements from the supplement of paper PMC8671470.
± gives the standard deviation of the averaged measurements.

How the values were obtained:
Details in all cases: 72 h
HL-60 [1] = experiment: cell viability (% survival relative to DMSO control); higher = less cytotoxic
Summary of the method: (§1)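 A rescreen of the full library used HL-60 cells in RPMI 1640 with 10% FBS on 384-well plates, run in duplicate at five tenfold concentrations (1–10,000 nM). Each screen included DMSO or 100 nM of one of three metabolic inhibitors and ran 72 h at 37 °C, 5% CO2. CellTiter-Glo viability was scaled between DMSO and 10 μM proteasome-inhibitor wells. Any area under the curve comes from four-parameter log-logistic fits with drc and PharmacoGx.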

HL-60 [2] = experiment: area under dose-response curve (viability, 1 nM-10 uM) (fraction (0-1)); higher = more sensitive
Summary of the method: as §1

BV-173 [3] = test system: BV-173
Summary of the method: (§2)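 In 384-well plates holding acoustically pre-printed compounds at five tenfold doses from 1 to 10,000 nM, in duplicate, fifteen myeloid leukaemia cell lines were grown in RPMI 1640 for 72 h at 37 °C with 5% CO2. Luminescent ATP viability was scaled between vehicle and a positive control at 10 µM. The IC50 was then taken from log-logistic dose–response fits with four parameters.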

HL-60 [4] = test system: HL-60
Summary of the method: as §2

K-562 [5] = test system: K-562
Summary of the method: as §2

KU-812 [6] = test system: KU-812
Summary of the method: as §2

LAMA-84 [7] = test system: LAMA-84
Summary of the method: as §2

MOLM-13 [8] = test system: MOLM-13
Summary of the method: as §2

MV4-11 [9] = test system: MV4-11
Summary of the method: as §2

Mono-Mac-6 [10] = test system: Mono-Mac-6
Summary of the method: as §2

NOMO-1 [11] = test system: NOMO-1
Summary of the method: as §2

SHI-1 [12] = test system: SHI-1
Summary of the method: as §2

THP-1 [13] = test system: THP-1
Summary of the method: as §2

BV-173 [14] = experiment: cell viability (% survival relative to DMSO control, bortezomib = 0%); higher = less cytotoxic
Summary of the method: (§3)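 In 384-well plates pre-printed with compounds at 1, 10, 100, 1000 or 10000 nM, duplicate wells received cells from 10 AML and 5 CML lines at densities within the linear growth range. The plates stayed at 37 °C with 5% CO2 for 72 h before CellTiter-Glo luminescence was recorded. Each entry is averaged percent survival. Scaling placed vehicle at 100% and a 10 µM positive control at 0%.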

HL-60 [15] = experiment: as above
Summary of the method: as §3

K-562 [16] = experiment: as above
Summary of the method: as §3

KU-812 [17] = experiment: as above
Summary of the method: as §3

LAMA-84 [18] = experiment: as above
Summary of the method: as §3

MOLM-13 [19] = experiment: as above
Summary of the method: as §3

MV4-11 [20] = experiment: as above
Summary of the method: as §3

Mono-Mac-6 [21] = experiment: as above
Summary of the method: as §3

NOMO-1 [22] = experiment: as above
Summary of the method: as §3

SHI-1 [23] = experiment: as above
Summary of the method: as §3

THP-1 [24] = experiment: as above
Summary of the method: as §3

Which results are given for N#Cc1ccnc(N2C(=O)CC[C@H]2C(=O)N(c2cncc(F)c2)[C@H](C(=O)NC2CC(F)(F)C2)c2ccccc2Cl)c1 [AG-120]?
cell viability (HL-60 [1]; 0.001 µM, co-treatment: AZD3965 100 nM): 102 ± 4%; cell viability (HL-60 [1]; 0.001 µM, co-treatment: DMSO vehicle): 104 ± 3.2%; cell viability (HL-60 [1]; 0.001 µM, co-treatment: GSK2194069 100 nM): 93.1 ± 14%; cell viability (HL-60 [1]; 0.001 µM, co-treatment: pictilisib 100 nM): 92.9 ± 6.7%; cell viability (HL-60 [1]; 0.01 µM, co-treatment: AZD3965 100 nM): 86.8 ± 16%; cell viability (HL-60 [1]; 0.01 µM, co-treatment: DMSO vehicle): 98.74 ± 0.48%; cell viability (HL-60 [1]; 0.01 µM, co-treatment: GSK2194069 100 nM): 101 ± 9.3%; cell viability (HL-60 [1]; 0.01 µM, co-treatment: pictilisib 100 nM): 98.2 ± 11%; cell viability (HL-60 [1]; 0.1 µM, co-treatment: AZD3965 100 nM): 113 ± 6.2%; cell viability (HL-60 [1]; 0.1 µM, co-treatment: DMSO vehicle): 99.6 ± 6.6%; cell viability (HL-60 [1]; 0.1 µM, co-treatment: GSK2194069 100 nM): 99.8 ± 12%; cell viability (HL-60 [1]; 0.1 µM, co-treatment: pictilisib 100 nM): 104 ± 1.6%; cell viability (HL-60 [1]; 1 µM, co-treatment: AZD3965 100 nM): 91 ± 1.1%; cell viability (HL-60 [1]; 1 µM, co-treatment: DMSO vehicle): 97.6 ± 1.5%; cell viability (HL-60 [1]; 1 µM, co-treatment: GSK2194069 100 nM): 92.3 ± 7.1%; cell viability (HL-60 [1]; 1 µM, co-treatment: pictilisib 100 nM): 77.1 ± 13%; cell viability (HL-60 [1]; 10 µM, co-treatment: AZD3965 100 nM): 102 ± 0.68%; cell viability (HL-60 [1]; 10 µM, co-treatment: DMSO vehicle): 99.14 ± 0.77%; cell viability (HL-60 [1]; 10 µM, co-treatment: GSK2194069 100 nM): 88.3 ± 1.1%; cell viability (HL-60 [1]; 10 µM, co-treatment: pictilisib 100 nM): 98.6 ± 1.9%; area under dose-response curve (HL-60 [2]; co-treatment: AZD3965 100 nM): < 0.0301; area under dose-response curve (HL-60 [2]; co-treatment: DMSO vehicle): < 0.0301; area under dose-response curve (HL-60 [2]; co-treatment: GSK2194069 100 nM): < 0.0301; area under dose-response curve (HL-60 [2]; co-treatment: pictilisib 100 nM): < 0.0301

For O=C(Nc1ccccc1)c1cc([N+](=O)[O-])ccc1Cl [GW9662], which “IC50 (cell viability)” value (BV-173 [3]) is on record?
The value was 8.53 µM.

And the “IC50 (cell viability)” value (HL-60 [4])?
Its value is > 10 µM.

And the “IC50 (cell viability)” value (K-562 [5])?
The value was > 10 µM.

And the “IC50 (cell viability)” value (KU-812 [6])?
Its value is > 10 µM.

What about the “IC50 (cell viability)” value (LAMA-84 [7]) of the same compound?
Its value is > 10 µM.

What about the “IC50 (cell viability)” value (MOLM-13 [8]) of the same compound?
Its value is > 10 µM.

And the “IC50 (cell viability)” value (MV4-11 [9])?
The value was 8.81 µM.

What about the “IC50 (cell viability)” value (Mono-Mac-6 [10]) of the same compound?
Its value is > 10 µM.

What about the “IC50 (cell viability)” value (NOMO-1 [11]) of the same compound?
Its value is > 10 µM.

What about the “IC50 (cell viability)” value (SHI-1 [12]) of the same compound?
Its value is > 10 µM.

And the “IC50 (cell viability)” value (THP-1 [13])?
Its value is > 10 µM.

What about the cell viability (BV-173 [14]; 1 nM) of the same compound?
The cell viability was 103%.

What about the cell viability (BV-173 [14]; 10 nM) of the same compound?
The cell viability was 95.7%.

What about the cell viability (BV-173 [14]; 100 nM) of the same compound?
The cell viability was 113%.

What about the cell viability (BV-173 [14]; 1000 nM) of the same compound?
The cell viability was 91.8%.

What about the cell viability (BV-173 [14]; 10000 nM) of the same compound?
The cell viability was 56.6%.

What about the cell viability (HL-60 [15]; 1 nM) of the same compound?
Its cell viability is 90.2%.

And the cell viability (HL-60 [15]; 10 nM)?
Its cell viability is 98.8%.

And the cell viability (HL-60 [15]; 100 nM)?
Its cell viability is 98.2%.

And the cell viability (HL-60 [15]; 1000 nM)?
The cell viability was 106%.

What about the cell viability (HL-60 [15]; 10000 nM) of the same compound?
The cell viability was 72.6%.

And the cell viability (K-562 [16]; 1 nM)?
The cell viability was 112%.

And the cell viability (K-562 [16]; 10 nM)?
The cell viability was 102%.

What about the cell viability (K-562 [16]; 100 nM) of the same compound?
The cell viability was 105%.

What about the cell viability (K-562 [16]; 1000 nM) of the same compound?
Its cell viability is 108%.

And the cell viability (K-562 [16]; 10000 nM)?
Its cell viability is 65.4%.

And the cell viability (KU-812 [17]; 1 nM)?
Its cell viability is 97.9%.

And the cell viability (KU-812 [17]; 10 nM)?
Its cell viability is 102%.

What about the cell viability (KU-812 [17]; 100 nM) of the same compound?
Its cell viability is 113%.

What about the cell viability (KU-812 [17]; 1000 nM) of the same compound?
Its cell viability is 87.3%.

What about the cell viability (KU-812 [17]; 10000 nM) of the same compound?
The cell viability was 71.7%.

What about the cell viability (LAMA-84 [18]; 1 nM) of the same compound?
The cell viability was 98.7%.

And the cell viability (LAMA-84 [18]; 10 nM)?
Its cell viability is 95.9%.

And the cell viability (LAMA-84 [18]; 100 nM)?
The cell viability was 110%.

And the cell viability (LAMA-84 [18]; 1000 nM)?
Its cell viability is 101%.

What about the cell viability (LAMA-84 [18]; 10000 nM) of the same compound?
Its cell viability is 90.5%.

What about the cell viability (MOLM-13 [19]; 1 nM) of the same compound?
Its cell viability is 109%.

What about the cell viability (MOLM-13 [19]; 10 nM) of the same compound?
The cell viability was 97%.

What about the cell viability (MOLM-13 [19]; 100 nM) of the same compound?
Its cell viability is 95.5%.

And the cell viability (MOLM-13 [19]; 1000 nM)?
The cell viability was 122%.

And the cell viability (MOLM-13 [19]; 10000 nM)?
The cell viability was 80.8%.

What about the cell viability (MV4-11 [20]; 1 nM) of the same compound?
The cell viability was 102%.

And the cell viability (MV4-11 [20]; 10 nM)?
Its cell viability is 93.3%.

What about the cell viability (MV4-11 [20]; 100 nM) of the same compound?
Its cell viability is 108%.

What about the cell viability (MV4-11 [20]; 1000 nM) of the same compound?
The cell viability was 115%.

And the cell viability (MV4-11 [20]; 10000 nM)?
Its cell viability is 42.9%.

What about the cell viability (Mono-Mac-6 [21]; 1 nM) of the same compound?
The cell viability was 101%.

And the cell viability (Mono-Mac-6 [21]; 10 nM)?
Its cell viability is 107%.

What about the cell viability (Mono-Mac-6 [21]; 100 nM) of the same compound?
The cell viability was 110%.

And the cell viability (Mono-Mac-6 [21]; 1000 nM)?
Its cell viability is 112%.

What about the cell viability (Mono-Mac-6 [21]; 10000 nM) of the same compound?
The cell viability was 115%.

What about the cell viability (NOMO-1 [22]; 1 nM) of the same compound?
Its cell viability is 95.6%.

And the cell viability (NOMO-1 [22]; 10 nM)?
The cell viability was 96.4%.

What about the cell viability (NOMO-1 [22]; 100 nM) of the same compound?
Its cell viability is 97.3%.

And the cell viability (NOMO-1 [22]; 1000 nM)?
The cell viability was 102%.

What about the cell viability (NOMO-1 [22]; 10000 nM) of the same compound?
The cell viability was 91.8%.

And the cell viability (SHI-1 [23]; 1 nM)?
The cell viability was 111%.

What about the cell viability (SHI-1 [23]; 10 nM) of the same compound?
Its cell viability is 104%.

What about the cell viability (SHI-1 [23]; 100 nM) of the same compound?
Its cell viability is 103%.

What about the cell viability (SHI-1 [23]; 1000 nM) of the same compound?
The cell viability was 107%.

What about the cell viability (SHI-1 [23]; 10000 nM) of the same compound?
The cell viability was 93.8%.

What about the cell viability (THP-1 [24]; 1 nM) of the same compound?
The cell viability was 103%.

What about the cell viability (THP-1 [24]; 10 nM) of the same compound?
Its cell viability is 101%.

And the cell viability (THP-1 [24]; 100 nM)?
The cell viability was 102%.

And the cell viability (THP-1 [24]; 1000 nM)?
The cell viability was 93.7%.

And the cell viability (THP-1 [24]; 10000 nM)?
The cell viability was 77.2%.
